Measured values as given in patent publication EP0017102A1, “Composition containing a phenyl benzoic acid compound and acetaminophen combination for the treatment of pain and inflammation and process for preparing the same” (Merck & Co., Inc., priority 1979, dated 1980).

How the values were obtained:
[1] = system: adjuvant arthritis induced in rats; assay: adjuvant arthritis analgesic bioassay (tail pinch / foot bend squeak response); type: in vivo, Sprague-Dawley rats
Text: Since analgesic tests using intact animals are not sensitive enough to detect the analgesic activity of nonsteroidal anti-inflammatory compounds, the analgesic bioassay employed utilized inflammatory sensitization procedures, specifically adjuvant arthritis. Adjuvant arthritis induced in rats, the animals used in the bioassay, resembles rheumatoid arthritis in man with respect to the manifestation of inflammation and hyperalgesia. When the affected joints of rats with adjuvant arthritis are subjected to a gentle manipulation, preferably by extending the joint, the rats respond by squeaking, which is a definite and reproducible sign of algesia. The ability of the tested compounds to suppress this squeaking response was an accurate measure of the analgesic activity of the tested compounds.
In accordance with the adjuvant arthritis bioassay used to evaluate the analgesic activity of the combinations of compounds of the present invention, young adult Sprague-Dawley rats of either sex are rendered hyperalgesic by injection of dessicated Mycobacterium- butyricum suspended in light mineral oil (Freund's adjuvant). The mycobacteria are ground in a mortar, suspended in the oil, and sterilized in an autoclave. Each animal receives 0.5 mg of the bacteria in 0.1 ml of oil, injected subcutaneously through a 21-gauge needle into the distal third of the tail.
The animals can subsequently be used in two ways for testing the analgesic action of drugs. The day after the injection of adjuvant, the tail is found to be sensitive to touch. Approximately 16 hours after the injection, the experimenter tests the animals for the presence of hyperalgesia. This is done by holding the animal in one hand. With the thumb and forefinger of the other hand, the observer applies gentle pressure to the tail about 2.5 cm proximal to the point where the needle has been inserted. This gentle pressure is repeated at 5-sec intervals. If the rat endures five such gentle presses without emitting more than one "squeak", analgesia is considered to be present and a score of + is assigned. Two or more squeaks earns a rating of 0, or no analgesia. Before being assigned to an experiment, animals are screened and only those with the 0 rating are used.
The hyperalgesic animals are assigned randomly to drug treatments and one of the treatments is always the vehicle without the drug (placebo group). […] […] This entire procedure may be referred to as "tail pinch" .technique. Alternatively, an apparatus for applying pressure to the tail may be employed and the "squeak threshold" determined before and after drug.
The adjuvant-injected animals, if left undisturbed, develop severe arthritis which becomes especially manifest in about two weeks. […] This "foot bend" technique yields drug responses essentially identical with those obtained by the "tail pinch" procedure.
For a further description of this bioassay and its significance, reference is made to Kuzuma and Kawai, "Evaluation of Analgesic Agents in Rats with Adjuvant Arthritis", Chem. Pharm. Bull., 23 (6) 1184-1191 (1975).

[2] = system: female albino mice (Carworth CF-1); assay: in vivo; type: in vivo; conditions: Group I: Diflunisal 400 mg./kg. (100 %LD50) alone; oral; 20 tested; 14 days
Method: Measurements of the relative safety of the components and of the combination were carried out using acute oral toxicity studies in female mice. Randomly selected female albino mice (Carworth CF-1) weighing from 18 to 24 grams, and 6 to 7 weeks old, were used. The LD50 value for each drug was estimated from acute oral dose-response curves previously established. The following dose regimen was utilized:
The preparations were administered by gastric intubation using a metal catheter attached to a springe. The various doses were administered randomly with 20 mice per group. Food was withheld one to two hours before and three hours following drug treatment. Water was available at all times. […] Body weights were taken pretest and on days 7 and 14.

O=C(O)c1cc(-c2ccc(F)cc2F)ccc1O [Diflunisal, 2-hydroxy-5-(2',4'-difluorophenyl)benzoic acid]
Number of Rats with Analgesia ([1]; 1/2 h after administration, dose 5 mg./kg., 8 rats per dose): 0 | Number of Rats with Analgesia ([1]; 1/2 h after administration, dose 10 mg./kg., 8 rats per dose): 0 | Percent of Rats with Analgesia Diflunisal Alone ([1]; 1 Hrs. after drug, Diflunisal 4 mg./kg., 8 rats per dose): 0% | Percent of Rats with Analgesia Diflunisal Alone ([1]; 1 Hrs. after drug, Diflunisal 4 mg./kg., 10 rats per dose): 0% | Percent of Rats with Analgesia Diflunisal Alone ([1]; 1 Hrs. after drug, Diflunisal 8 mg./kg., 8 rats per dose): 0% | Percent of Rats with Analgesia Diflunisal Alone ([1]; 1 Hrs. after drug, Diflunisal 10 mg./kg., 8 rats per dose): 0% | Percent of Rats with Analgesia Diflunisal Alone ([1]; 1 Hrs. after drug, Diflunisal 16 mg./kg., 8 rats per dose): 0% | Percent of Rats with Analgesia Diflunisal Alone ([1]; 2 Hrs. after drug, Diflunisal 2 mg./kg., 10 rats per dose): 20% | Percent of Rats with Analgesia Diflunisal Alone ([1]; 3 Hrs. after drug, Diflunisal 4 mg./kg., 10 rats per dose): 0% | Percent of Rats with Analgesia Diflunisal Alone ([1]; 3 Hrs. after drug, Diflunisal 5 mg./kg., 8 rats per dose): 25% | Percent of Rats with Analgesia Diflunisal Alone ([1]; 3 Hrs. after drug, Diflunisal 8 mg./kg., 10 rats per dose): 50% | Percent of Rats with Analgesia Diflunisal Alone ([1]; 4 Hrs. after drug, Diflunisal 2 mg./kg., 10 rats per dose): 0% | Percent of Rats with Analgesia Diflunisal Alone ([1]; 4 Hrs. after drug, Diflunisal 4 mg./kg., 10 rats per dose): 0% | Percent of Rats with Analgesia Diflunisal Alone ([1]; 4 Hrs. after drug, Diflunisal 5 mg./kg., 8 rats per dose): 10% | Percent of Rats with Analgesia Diflunisal Alone ([1]; 4 Hrs. after drug, Diflunisal 8 mg./kg., 10 rats per dose): 30% | Percent of Rats with Analgesia Diflunisal Alone ([1]; 5 Hrs. after drug, Diflunisal 5 mg./kg., 8 rats per dose): 0% | Percent of Rats with Analgesia Diflunisal Alone ([1]; 5 Hrs. after drug, Diflunisal 8 mg./kg., 8 rats per dose): 0% | Percent of Rats with Analgesia Diflunisal Alone ([1]; 6 Hrs. after drug, Diflunisal 8 mg./kg., 8 rats per dose): 0% | Percent of Rats with Analgesia Diflunisal Alone ([1]; 6 Hrs. after drug, Diflunisal 10 mg./kg., 8 rats per dose): 0% | Number of Rats with Analgesia ([1]; 1 h after administration, dose 2 mg./kg., 10 rats per dose): 2 | Number of Rats with Analgesia ([1]; 1 h after administration, dose 4 mg./kg., 8 rats per dose): 0 | Number of Rats with Analgesia ([1]; 1 h after administration, dose 4 mg./kg., 10 rats per dose): 0 | Number of Rats with Analgesia ([1]; 1 h after administration, dose 5 mg./kg., 8 rats per dose): 0 | Number of Rats with Analgesia ([1]; 1 h after administration, dose 8 mg./kg., 8 rats per dose): 0 | Number of Rats with Analgesia ([1]; 1 h after administration, dose 8 mg./kg., 10 rats per dose): 4 | Number of Rats with Analgesia ([1]; 1 h after administration, dose 10 mg./kg., 8 rats per dose): 0 | Number of Rats with Analgesia ([1]; 1 h after administration, dose 16 mg./kg., 8 rats per dose): 0 | Number of Rats with Analgesia ([1]; 1 h after administration, dose 20 mg./kg., 8 rats per dose): 1 | Number of Rats with Analgesia ([1]; 2 h after administration, dose 2 mg./kg., 10 rats per dose): 2 | Number of Rats with Analgesia ([1]; 2 h after administration, dose 4 mg./kg., 8 rats per dose): 2 | Number of Rats with Analgesia ([1]; 2 h after administration, dose 4 mg./kg., 10 rats per dose): 1 | Number of Rats with Analgesia ([1]; 2 h after administration, dose 5 mg./kg., 8 rats per dose): 1 | Number of Rats with Analgesia ([1]; 2 h after administration, dose 8 mg./kg., 8 rats per dose): 1 | Number of Rats with Analgesia ([1]; 2 h after administration, dose 8 mg./kg., 10 rats per dose): 4 | Number of Rats with Analgesia ([1]; 2 h after administration, dose 10 mg./kg., 8 rats per dose): 1 | Number of Rats with Analgesia ([1]; 2 h after administration, dose 16 mg./kg., 8 rats per dose): 4 | Number of Rats with Analgesia ([1]; 2 h after administration, dose 20 mg./kg., 8 rats per dose): 4 | Number of Rats with Analgesia ([1]; 3 h after administration, dose 2 mg./kg., 10 rats per dose): 2 | Number of Rats with Analgesia ([1]; 3 h after administration, dose 4 mg./kg., 8 rats per dose): 1 | Number of Rats with Analgesia ([1]; 3 h after administration, dose 4 mg./kg., 10 rats per dose): 0 | Number of Rats with Analgesia ([1]; 3 h after administration, dose 5 mg./kg., 8 rats per dose): 2 | Number of Rats with Analgesia ([1]; 3 h after administration, dose 8 mg./kg., 8 rats per dose): 3 | Number of Rats with Analgesia ([1]; 3 h after administration, dose 8 mg./kg., 10 rats per dose): 5 | Number of Rats with Analgesia ([1]; 3 h after administration, dose 10 mg./kg., 8 rats per dose): 4 | Number of Rats with Analgesia ([1]; 3 h after administration, dose 16 mg./kg., 8 rats per dose): 6 | Number of Rats with Analgesia ([1]; 3 h after administration, dose 20 mg./kg., 8 rats per dose): 7 | Number of Rats with Analgesia ([1]; 4 h after administration, dose 2 mg./kg., 10 rats per dose): 0 | Number of Rats with Analgesia ([1]; 4 h after administration, dose 4 mg./kg., 8 rats per dose): 0 | Number of Rats with Analgesia ([1]; 4 h after administration, dose 4 mg./kg., 10 rats per dose): 0 | Number of Rats with Analgesia ([1]; 4 h after administration, dose 5 mg./kg., 8 rats per dose): 1 | Number of Rats with Analgesia ([1]; 4 h after administration, dose 8 mg./kg., 8 rats per dose): 1 | Number of Rats with Analgesia ([1]; 4 h after administration, dose 8 mg./kg., 10 rats per dose): 3 | Number of Rats with Analgesia ([1]; 4 h after administration, dose 10 mg./kg., 8 rats per dose): 4 | Number of Rats with Analgesia ([1]; 4 h after administration, dose 16 mg./kg., 8 rats per dose): 3 | Number of Rats with Analgesia ([1]; 4 h after administration, dose 20 mg./kg., 8 rats per dose): 7 | Number of Rats with Analgesia ([1]; 5 h after administration, dose 2 mg./kg., 10 rats per dose): 0 | Number of Rats with Analgesia ([1]; 5 h after administration, dose 4 mg./kg., 8 rats per dose): 0 | Number of Rats with Analgesia ([1]; 5 h after administration, dose 4 mg./kg., 10 rats per dose): 1 | Number of Rats with Analgesia ([1]; 5 h after administration, dose 5 mg./kg., 8 rats per dose): 0 | Number of Rats with Analgesia ([1]; 5 h after administration, dose 8 mg./kg., 8 rats per dose): 0 | Number of Rats with Analgesia ([1]; 5 h after administration, dose 8 mg./kg., 10 rats per dose): 2 | Number of Rats with Analgesia ([1]; 5 h after administration, dose 10 mg./kg., 8 rats per dose): 2 | Number of Rats with Analgesia ([1]; 5 h after administration, dose 16 mg./kg., 8 rats per dose): 2 | Number of Rats with Analgesia ([1]; 5 h after administration, dose 20 mg./kg., 8 rats per dose): 5 | Number of Rats with Analgesia ([1]; 6 h after administration, dose 2 mg./kg., 10 rats per dose): 0 | Number of Rats with Analgesia ([1]; 6 h after administration, dose 4 mg./kg., 8 rats per dose): 0 | Number of Rats with Analgesia ([1]; 6 h after administration, dose 4 mg./kg., 10 rats per dose): 0 | Number of Rats with Analgesia ([1]; 6 h after administration, dose 5 mg./kg., 8 rats per dose): 0 | Number of Rats with Analgesia ([1]; 6 h after administration, dose 8 mg./kg., 8 rats per dose): 0 | Number of Rats with Analgesia ([1]; 6 h after administration, dose 8 mg./kg., 10 rats per dose): 1 | Number of Rats with Analgesia ([1]; 6 h after administration, dose 10 mg./kg., 8 rats per dose): 0 | Number of Rats with Analgesia ([1]; 6 h after administration, dose 16 mg./kg., 8 rats per dose): 1 | Number of Rats with Analgesia ([1]; 6 h after administration, dose 20 mg./kg., 8 rats per dose): 4 | Total Positives ([1]; sum over 1/2, 1 and 2 h, dose 5 mg./kg., 8 rats per dose): 1 | Total Positives ([1]; sum over 1/2, 1 and 2 h, dose 10 mg./kg., 8 rats per dose): 1 | Total Positives ([1]; sum over 1 and 2 h, dose 4 mg./kg., 10 rats per dose): 1 | No. Dead [2]: 14
